Laboratory results as given in patent US20220118159A1, “ANTIOXIDANT-RELEASING VITREOUS SUBSTITUTES AND USES THEREOF” (Ohio State Innovation Foundation, priority 2019, published 2022).
“Also recorded” adds a separate entry of the source. Read-outs that look alike come from different tables or passages of the source.

Assays:
[1] = system: LEC; experiment: CellTiter-Glo luminescent cell viability assay
Procedure: (§1) Cell Viability and ROS Activity Assays. ARPE-19 and LEC were seeded in 96-well plates at 1×10^4 cells per well in DMEM/F-12 and DMEM, respectively, supplemented with 10% FCS and 1% Pen Strep for 24 h at 37° C. in 5% CO2 humidified atmosphere. The hydrogels were submerged in 70% ethanol for 1 hour to sterilize, rinsed with deionized water 3 times for 1 hour each to remove the residual ethanol, and mixed well with serum-free and phenol red-free DMEM at a hydrogel concentration of 10% w/v (J. Chang, et al., J Mater Chem B. 2015, 3, 1097-1105; Y. Tao, et al., Acta Biomater. 2013, 9, 5022-5030; M. Annaka, et al., Biomacromolecules. 2011, 12, 4011-4021; and S. Lamponi, et al., J. Biomater. Sci. Polym. Ed. 2012, 23, 555-575). The culture medium in each well was removed and medium (100 μL) with/without hydrogel and with/without vitamin C (2.2 mM) was added to each well and incubated for 24 hours. Hydrogen peroxide (10 200 μM final concentration) was added to half of the wells, and DPBS (10 μL) was added to the remaining wells as a control (A. Heckelen, et al., Acta Ophthalmol Scand. 2004, 82, 564-568; and H. S. Lee, et al., Invest. Ophthalmol. Vis. Sci. 2017, 58, 1196-1207). The well plates were incubated for 30 minutes. CellTiter-Glo luminescent cell viability assay was conducted according to the manufacturer's protocol. Briefly, the well plates were equilibrated to room temperature for 30 minutes. CellTiter-Glo Reagent (100 μL) was added to each well, and the contents were mixed for 10 minutes using an orbital shaker. The well plates were incubated at room temperature for 10 minutes before the luminescent signal was measured using the Synergy HT multi-mode microplate reader. ROS activity was detected using DCF. Briefly, DCF (100 20 μM final concentration) was added to each well, and the contents were incubated at room temperature for 30 minutes (Y. Ou, et al., Chem Biol Interact. 2009, 179, 103-109). The fluorescence signal was measured with excitation and emission wavelengths of 485 and 525 nm, respectively, using a TECAN M200 Plate Reader (Männedorf, Switzerland).
(§2) Screening of Hydrogen Peroxide, Vitamin C, and Glutathione Concentrations Using a Cell Viability Assay: ARPE-19 and LEC were seeded in 96-well plates at 1×10^4 cells per well in DMEM/F-12 and DMEM, respectively, supplemented with 10% FCS and 1% Pen Strep for 24 h at 37° C. in 5% CO2 humidified atmosphere. The culture medium in each well was removed and various media with vitamin C (2000 μM, 1000 μM, 500 μM, 100 μM, and 0 μM) or glutathione (10000 μM, 4000 μM, 2000 μM, 1000 μM, 500 μM, and 0 μM) was added to each well (100 μL) and incubated for 24 hours. Hydrogen peroxide (600 μM, 400 μM, 200 μM, 100 μM, 50 μM, and 0 μM) and a special case of vitamin C (2000 μM) was added (100 μL) 30 minutes before performing the viability assays. CellTiter-Glo luminescent cell viability assay was conducted according to the manufacturer's protocol. Briefly, the well plates were equilibrated to room temperature for 30 minutes. CellTiter-Glo Reagent (100 μL) was added to each well, and the contents were mixed for 10 minutes using an orbital shaker.

[2] = system: ARPE-19; experiment: CellTiter-Glo luminescent cell viability assay
Procedure: as §1, §2

[3] = Vitamin C remaining (stability) study, absorbance at 265 nm
Procedure: (§5) Chitosan (Sigma-Aldrich, low molecular weight, 1 mg/ml) was dissolved in acetic acid solution (1% w/w, 500 ml) for 60 min at 500 rpm. Sodium tripolyphosphate (1.75 mg/ml, 500 ml) was added dropwise into the chitosan solution to form nanoparticles over 2 hours. The nanoparticles were collected by centrifugation at 4000 rpm for 15 min at 21° C. The particles were washed with deionized water and again centrifuged. Vitamin C (10% w/w, 10 ml, pH 5.5) was added to the particles and equilibrated for 18 hours on an orbital shaker. Sodium alginate (FMC BioPolymer, Protanal PH, 1 mg/ml, 10 ml, pH 5.5) was added to the vitamin C and chitosan particle solution and sonicated for 30 min. Chitosan (Sigma-Aldrich, low molecular weight, 1 mg/ml in 1% w/w acetic acid solution, 10 ml) or gelatin (bloom 175, 1 mg/ml, 10 ml) was added to the vitamin c-chitosan-alginate particles and sonicated for 30 min. The particles were collected by centrifugation at 4000 rpm for 15 min at 21° C. and freeze dried. […] Concentration of vitamin C versus time was determined using methods as described elsewhere in the Examples.
(§6) Either the particle solutions or the chemically-stabilized Vitamin C solutions were incubated in the hydrogels at 37° C.
(§7) For each solution tested, a control group with no vitamin C and a test group with vitamin C (1% w/w) alone in DPBS were included. […] All solutions were kept at 37° C. throughout the release studies. The amount of viable vitamin C remaining in the solutions was measured using a Synergy HT multi-mode microplate reader (BioTek, Winooski, Vt.) at wavelength 265 nm and compared to the control groups to determine the amount of viable vitamin C left in the solutions. To measure the concentration of vitamin C, solutions with particles were centrifuged at 3220 rpm for 5 min and solution (500 uL) was removed and placed into a 96-well plate measured on days 0, 1, 2, 3, 4, 7, 8, 9, 10, 11, and 14. After two weeks, solutions with higher concentrations of vitamin C were measured every other day until vitamin C was undetectable. For the particle solutions, DPBS solutions (500 uL) was added back into the solution to maintain a constant volume.

[4] = system: LEC; experiment: ROS activity, DCF assay; format: cell-based, human
Procedure: (§3) Cell Viability and ROS Activity Assays. […] The well plates were incubated for 30 minutes. […] ROS activity was detected using DCF. […] The fluorescence signal was measured with excitation and emission wavelengths of 485 and 525 nm, respectively, using a TECAN M200 Plate Reader (Männedorf, Switzerland).
(§4) Antioxidant Activity of Vitamin C in Reducing Reactive Oxygen Species (ROS) Activity Using DCF Assay: The ROS activity induced by hydrogen peroxide (200 μM for 30 minutes) of ARPE-19 and LEC treated with vitamin C (0, 100, and 1000 μM for 30 minutes or 24 hours) was determined using dichlorofluorescein assay. Briefly, LEC and ARPE-19 cells were cultured as aforementioned.

[5] = system: ARPE-19; experiment: ROS activity, DCF assay; format: cell-based, human
Procedure: as §3, §4

[6] = 2 mM
Procedure: as §5, §6, §7

[7] = Sodium ascorbate degradation and release from polyacrylamide hydrogels; format: physicochemical; settings: PBS, lag time about 36 hours after making
Procedure: The 2 mM sodium ascorbate solutions in PBS, which was diluted 20× before measurement as previously described, show an exponential-like decay in concentration over time (note that the y-axis is plotted on a log scale). Additionally, its concentration at time 0 was 1.4 mM, not 2 mM as made, since there was a lag time between when the solutions were made and when the experiment started. This lag time (about 36 hours) was due to the delayed gelation time of polyacrylamide hydrogels. The polymer solutions with sodium ascorbate gelled within 18 hours. However, the polymer solutions without sodium ascorbate took twice as long to gel.
The gelled polyacrylamide hydrogels (1 ml) with or without sodium ascorbate were submerged in 10 ml of PBS. […] The 1 ml aliquots were measured without dilution, since the sodium ascorbate concentrations were already within the linear region of the standard curve.
The absorbance readings of the hydrogels without sodium ascorbate increase with time. Since there was no sodium ascorbate added to these hydrogels, the increase in absorbance could be due to the small pieces of polymer leached out from the hydrogel causing UV light interference. […] The absorbance readings of hydrogels without sodium ascorbate can be subtracted from the ones with sodium ascorbate to obtain the true absorbance reading due to the varying concentrations of sodium ascorbate.

[8] = glutathione, all tested conditions up to 10000 μM, 24 hours
[9] = Example 7: hydrogen peroxide 200 μM final, 30 minutes, vs non-treated
[10] = H2O2 200 μM and 400 μM, 30 minutes
[11] = hydrogen peroxide 600 μM, 30 minutes
[12] = hydrogen peroxide at or below 100 μM, 30 minutes
[13] = hydrogen peroxide 200 μM, 30 minutes, compared to control
[14] = vitamin C 100 μM for 24 hours, H2O2 200 μM
[15] = vitamin C 100 μM, after 24 hours, not treated with H2O2
[16] = vitamin C 100 and 1000 μM for 30 minutes

N[C@@H](CCC(=O)N[C@@H](CS)C(=O)NCC(=O)O)C(=O)O [Glutathione, glutathione]
change of cell viability ([1]; glutathione 4000 μM and 10000): decreased | cell viability [1, 8]: above 70% | change of cell viability ([2]; glutathione concentration above 100 μM): increased | cell viability [2, 8]: above 70% | maintenance of vitamin C concentrations ([3]; particles, presence of glutathione (FIGS. 18-19)): improved maintenance of vitamin C concentrations | vitamin C remaining ([3]; past 14 days, glutathione 4-10 mM (FIG. 25)): More than half

OO [Hydrogen peroxide, hydrogen peroxide]
cell viability [1, 9]: statistically lower | cell viability [1, 10]: significantly decreased the cell viability | cell viability [1, 11]: significantly decreased cell viability | cell viability [1, 12]: did not affect cell viability | cell viability [2, 9]: approximately the same or even higher | cell viability [2, 10]: had no effect | cell viability [2, 11]: significantly decreased cell viability | cell viability [2, 12]: did not affect cell viability | increase in ROS activity ([4]; hydrogen peroxide 200 μM): 1.5 times | ROS activity [4, 13]: increased | ROS activity [5, 13]: did not affect; also recorded: did not significantly respond

O=C1O[C@H]([C@@H](O)CO)C(O)=C1O [Vitamin C, ascorbic acid]
reduction of ROS induced by hydrogen peroxide [4, 14]: not effective | ROS activity [4, 15]: returned to the same level as the control | ROS activity ([4]; vitamin C 1000 μM for 24 hours with H2O2): the same ROS activity as the no H2O2 no vitamin C control | ROS activity [4, 16]: 15-30% | reduction of ROS induced by hydrogen peroxide [5, 14]: not effective | ROS activity [5, 15]: returned to the same level as the control | ROS activity ([5]; vitamin C 1000 μM for 24 hours): did not return to the normal control level | ROS activity [5, 16]: 15-30% | vitamin C remaining ([6]; 72 h): 10% | vitamin C remaining ([6]; 5 days): 0%

O=C1O[C@H]([C@@H](O)CO)C([O-])=C1O.[Na+] [sodium ascorbate]
concentration of 2 mM sodium ascorbate solution at time 0 [7]: 1.4 mM
